≈ marks a conversion by molar mass, not a printed value.
What was measured:
Assay type in all cases: functional
Cryptococcus neoformans = assay: Antifungal activity against Cryptococcus neoformans CGMCC 2.3161 assessed as fungal growth inhibition by CLSI based serial microbroth dilution method
Candida parapsilosis = assay: Antifungal activity against Candida parapsilosis GIM 2.190 assessed as fungal growth inhibition by CLSI based serial microbroth dilution method; conditions: Lodderomyces parapsilosis
Candida albicans [1] = assay: Antifungal activity against Candida albicans CPCC400616 assessed as fungal growth inhibition by CLSI based serial microbroth dilution method
Aspergillus fumigatus = assay: Antifungal activity against Aspergillus fumigatus CGMCC 3.7795 assessed as fungal growth inhibition by CLSI based serial microbroth dilution method
Pichia kudriavzevii = assay: Antifungal activity against Candida krusei GIM 2.1 assessed as fungal growth inhibition by CLSI based serial microbroth dilution method
Candida albicans [2] = assay: Antifungal activity against Candida albicans ATCC SC5314 assessed as fungal growth inhibition by CLSI based serial microbroth dilution method
Nakaseomyces glabratus = assay: Antifungal activity against Candida glabrata clinical isolate assessed as fungal growth inhibition by CLSI based serial microbroth dilution method
Candida tropicalis = assay: Antifungal activity against Candida tropicalis CGMCC 2.3739 assessed as fungal growth inhibition by CLSI based serial microbroth dilution method

Row | SMILES | MIC (Cryptococcus neoformans) [µg/mL] | MIC (Candida parapsilosis) [µg/mL] | MIC (Candida albicans [1]) [µg/mL] | MIC (Aspergillus fumigatus) [µg/mL] | MIC (Pichia kudriavzevii) [µg/mL] | MIC (Candida albicans [2]) [µg/mL] | MIC (Nakaseomyces glabratus) [µg/mL] | MIC (Candida tropicalis) [µg/mL]
1 | c1ccc(CC2(Cn3ccnc3)COC(c3cc(-c4ccccc4)on3)=N2)cc1 (configuration not stated) | 4 (≈ 10.4 µM) | > 64 | > 64 | 2 (≈ 5.2 µM) | > 64 | > 64 | > 64 | > 64
2 | c1ccc(CC2(Cn3ccnc3)COC(c3noc4c3CCc3ccccc3-4)=N2)cc1 (configuration not stated) | > 64 | > 64 | 32 (≈ 78 µM) | > 64 | > 64 | 16 (≈ 39 µM) | 16 (≈ 39 µM) | 32 (≈ 78 µM)
3 | Cc1ccc(CC2(Cn3ccnc3)COC(c3ccc(-c4ccsc4)cc3)=N2)cc1 (configuration not stated) | > 64 | > 64 | > 64 | > 64 | > 64 | > 64 | > 64 | > 64
4 | CC(C)(C)c1ccc(CC2(Cn3ccnc3)COC(c3ccc(-c4ccsc4)cc3)=N2)cc1 (configuration not stated) | > 64 | > 64 | > 64 | > 64 | > 64 | > 64 | > 64 | > 64
5 | Clc1cccc(CC2(Cn3ccnc3)COC(c3ccc(-c4ccsc4)cc3)=N2)c1 (configuration not stated) | > 64 | > 64 | > 64 | > 64 | > 64 | > 64 | > 64 | > 64
6 | Fc1ccc(CC2(Cn3ccnc3)COC(c3ccc(-c4ccsc4)cc3)=N2)cc1F (configuration not stated) | > 64 | > 64 | > 64 | > 64 | > 64 | > 64 | > 64 | > 64
7 | CCC(C)n1ncn(-c2ccc(N3CCN(c4ccc(OCC5COC(Cn6cncn6)(c6ccc(Cl)cc6Cl)O5)cc4)CC3)cc2)c1=O (configuration not stated) [ITRACONAZOLE] | 0.125 (≈ 0.177 µM) | 0.125 (≈ 0.177 µM) | < 0.03 | 0.125 (≈ 0.177 µM) | 0.125 (≈ 0.177 µM) | 0.03 (≈ 0.0425 µM) | 0.125 (≈ 0.177 µM) | < 0.03
8 | Clc1ccc(CC2(Cn3ccnc3)COC(c3ccc(-c4ccsc4)cc3)=N2)c(Cl)c1 (configuration not stated) | > 64 | > 64 | > 64 | > 64 | > 64 | > 64 | > 64 | > 64
9 | c1ccc(COc2ccc(C3=NC(Cc4ccccc4)(Cn4ccnc4)CO3)cc2)cc1 (configuration not stated) | > 64 | > 64 | > 64 | > 64 | > 64 | > 64 | > 64 | > 64
10 | CC(C)c1ccc(CC2(Cn3ccnc3)COC(c3ccc(-c4ccsc4)cc3)=N2)cc1 (configuration not stated) | > 64 | > 64 | > 64 | > 64 | > 64 | > 64 | > 64 | > 64
11 | Clc1ccccc1CC1(Cn2ccnc2)COC(c2ccc(-c3ccsc3)cc2)=N1 (configuration not stated) | > 64 | 1 (≈ 2.3 µM) | 8 (≈ 18.4 µM) | 16 (≈ 36.9 µM) | > 64 | 0.125 (≈ 0.288 µM) | 16 (≈ 36.9 µM) | 0.5 (≈ 1.15 µM)
12 | c1ccc(CC2(Cn3ccnc3)COC(c3cc4ccccc4o3)=N2)cc1 (configuration not stated) | > 64 | > 64 | > 64 | > 64 | > 64 | > 64 | > 64 | 8 (≈ 22.4 µM)
13 | c1ccc(CC2(Cn3ccnc3)COC(c3ccc4ccccc4c3)=N2)cc1 (configuration not stated) | 4 (≈ 10.9 µM) | > 64 | > 64 | > 64 | > 64 | > 64 | > 64 | > 64
14 | Fc1ccc(CC2(Cn3ccnc3)COC(c3ccc(-c4ccsc4)cc3)=N2)c(F)c1 (configuration not stated) | > 64 | > 64 | > 64 | > 64 | 2 (≈ 4.59 µM) | > 64 | > 64 | > 64

— ChEMBL document CHEMBL5154783, “Design, synthesis, and evaluation of novel 3-thiophene derivatives as potent fungistatic and fungicidal reagents based on a conformational restriction strategy” (Eur J Med Chem, 2022)
